The values below come from US11377442B2, “Small molecule agonists and antagonists of NR2F6 activity” (ZANDER THERAPEUTICS, INC., priority 2016, dated 2022).

Structures are written as SMILES.

This test has as its target T1, NR2F6 (Homo sapiens, UniProt P10588).
T1 construct: expressed in transfected cells; also transient transfection
T1 sequence (P10588 1-404): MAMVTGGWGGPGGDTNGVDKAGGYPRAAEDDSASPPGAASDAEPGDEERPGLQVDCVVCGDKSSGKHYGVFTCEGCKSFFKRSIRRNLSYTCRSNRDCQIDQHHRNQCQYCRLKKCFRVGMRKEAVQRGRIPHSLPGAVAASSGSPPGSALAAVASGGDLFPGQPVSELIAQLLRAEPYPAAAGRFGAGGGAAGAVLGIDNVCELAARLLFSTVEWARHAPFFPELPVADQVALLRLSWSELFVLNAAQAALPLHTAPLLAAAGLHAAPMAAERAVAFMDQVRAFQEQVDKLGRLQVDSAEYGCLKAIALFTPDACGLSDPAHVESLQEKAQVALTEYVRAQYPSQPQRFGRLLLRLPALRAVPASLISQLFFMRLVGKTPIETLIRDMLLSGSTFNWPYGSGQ
As to the kind of experiment: NR2F6 agonist screening, Firefly signal cmpd/DMSO. In kind it is cell-based. To be noted: for Firefly/Renilla (NR2F6 stable, clone F4): ratio Firefly/Renilla; for Firefly, NR2F6 stable (clone F4)/pGL4: ratio of Firefly in NR2F6 stable clone F4 to pGL4.

The mark [1] stands for this setting: C11 analogs follow set (Tables 2-10).

Consider `O=c1oc2ccccc2cc1S(=O)(=O)c1cccc(Cl)c1` [Compound C109], for which, under setting [1], the “Firefly, cmpd/DMSO repeat 1” value is given as 9.2 and the “Firefly, cmpd/DMSO repeat 2” value amounted to 10.3. Also, for the setting “Table 13”, the “Firefly/Renilla (NR2F6 stable, clone F4)” value stood at 2.9; the “Firefly, NR2F6 stable (clone F4)/pGL4” value is 2.9; the “Firefly, cmpd/DMSO repeat 1” value was 9.2; the “Firefly, cmpd/DMSO repeat 2” value worked out at 10.3.
In the case of `Cc1cc(S(=O)(=O)c2cc3ccccc3oc2=O)ccc1F` [Compound C110], under setting [1], the “Firefly, cmpd/DMSO repeat 1” value turned out to be 7.6 and the “Firefly, cmpd/DMSO repeat 2” value is reported as 7.2. For the same compound, under “Table 12”, the “Firefly/Renilla (NR2F6 stable, clone F4)” value came out at 3.3; the “Firefly, NR2F6 stable (clone F4)/pGL4” value is recorded as 3.9; the “Firefly, cmpd/DMSO repeat 1” value was 7.6; the “Firefly, cmpd/DMSO repeat 2” value was 7.2.
With `O=C(NCCc1ccccc1)c1ccc2oc(=O)c(S(=O)(=O)c3ccccc3)cc2c1` [Compound C111], under setting [1], the “Firefly, cmpd/DMSO repeat 1” value was determined as 29.8 and the “Firefly, cmpd/DMSO repeat 2” value stood at 35.9. For the same compound, under “Table 13”, the “Firefly/Renilla (NR2F6 stable, clone F4)” value is recorded as 1.1; the “Firefly, NR2F6 stable (clone F4)/pGL4” value was found to be 8.7; the “Firefly, cmpd/DMSO repeat 1” value came out at 29.8; the “Firefly, cmpd/DMSO repeat 2” value worked out at 35.9.
Turning to `Cc1ccc(S(=O)(=O)c2cc3cc(C(=O)NCCc4ccccc4)ccc3oc2=O)cc1` [Compound C112], under setting [1], the “Firefly, cmpd/DMSO repeat 1” value stood at 11.7 and the “Firefly, cmpd/DMSO repeat 2” value was found to be 10.1. Besides, under “Table 12”, the “Firefly/Renilla (NR2F6 stable, clone F4)” value was found to be 2.0; the “Firefly, NR2F6 stable (clone F4)/pGL4” value came to 4.1; the “Firefly, cmpd/DMSO repeat 1” value was 11.7; the “Firefly, cmpd/DMSO repeat 2” value was found to be 10.1.
As to `O=C(NCCc1ccccc1)c1ccc2oc(=O)c(S(=O)(=O)c3ccc(F)cc3)cc2c1` [Compound C113], under setting [1], the “Firefly, cmpd/DMSO repeat 1” value was determined as 5.8 and the “Firefly, cmpd/DMSO repeat 2” value came out at 7.0.
On the same counts, the results for `O=C(NCCc1ccccc1)c1ccc2oc(=O)c(S(=O)(=O)c3ccc(Cl)cc3)cc2c1` [Compound C114] are 4.5 and 4.7.
`O=C(NCc1ccccc1)c1ccc2oc(=O)c(S(=O)(=O)c3ccccc3)cc2c1` [Compound C115]: under setting [1], the “Firefly, cmpd/DMSO repeat 1” value is given as 6.8 and the “Firefly, cmpd/DMSO repeat 2” value is listed as 21.9.
As for `Cc1ccc(CNC(=O)c2ccc3oc(=O)c(S(=O)(=O)c4ccc(Cl)cc4)cc3c2)cc1` [Compound C116], under setting [1], the “Firefly, cmpd/DMSO repeat 1” value stood at 8.6 and the “Firefly, cmpd/DMSO repeat 2” value came to 9.0.
For `COc1ccc(CNC(=O)c2ccc3oc(=O)c(S(=O)(=O)c4ccc(F)cc4)cc3c2)cc1` [Compound C117] the same measures were 17.3 and 24.1.
With `O=C(NCc1ccc(F)cc1)c1ccc2oc(=O)c(S(=O)(=O)c3ccc(F)cc3)cc2c1` [Compound C118], under setting [1], the “Firefly, cmpd/DMSO repeat 1” value came out at 13.5 and the “Firefly, cmpd/DMSO repeat 2” value stood at 17.1. Under “Table 13”, the “Firefly/Renilla (NR2F6 stable, clone F4)” value turned out to be 1.1; the “Firefly, NR2F6 stable (clone F4)/pGL4” value worked out at 5.9; the “Firefly, cmpd/DMSO repeat 1” value is 13.5; the “Firefly, cmpd/DMSO repeat 2” value is reported as 17.1.
Consider `O=C(NCc1ccc(F)cc1)c1ccc2oc(=O)c(S(=O)(=O)c3ccc(Cl)cc3)cc2c1` [Compound C119], for which, under setting [1], the “Firefly, cmpd/DMSO repeat 1” value is recorded as 18.4 and the “Firefly, cmpd/DMSO repeat 2” value is on record as 16.2.
`O=C(Nc1ccccc1C(F)(F)F)c1ccc2oc(=O)c(S(=O)(=O)c3ccc(F)cc3)cc2c1` [Compound C120]: under setting [1], the “Firefly, cmpd/DMSO repeat 1” value came to 4.5 and the “Firefly, cmpd/DMSO repeat 2” value was determined as 6.3.
On the same counts, the results for `COc1ccc(NC(=O)c2ccc3oc(=O)c(S(=O)(=O)c4ccc(C)cc4)cc3c2)cc1OC` [Compound C121] are 9.0 and 21.5.
For the compound `COc1ccc(NC(=O)c2ccc3oc(=O)c(S(=O)(=O)c4ccc(Cl)cc4)cc3c2)cc1OC` [Compound C122], under setting [1], the “Firefly, cmpd/DMSO repeat 1” value was determined as 4.4 and the “Firefly, cmpd/DMSO repeat 2” value turned out to be 5.7.
For `COc1ccccc1NC(=O)c1ccc2oc(=O)c(S(=O)(=O)c3ccccc3)cc2c1` [Compound C123] the same measures were 17.7 and 16.8.
Take `COc1ccccc1NC(=O)c1ccc2oc(=O)c(S(=O)(=O)c3ccc(F)cc3)cc2c1` [Compound C124]: under setting [1], the “Firefly, cmpd/DMSO repeat 1” value is 25.5 and the “Firefly, cmpd/DMSO repeat 2” value was 29.8.
`COc1ccccc1NC(=O)c1ccc2oc(=O)c(S(=O)(=O)c3ccc(Cl)cc3)cc2c1` [Compound C125]: under setting [1], the “Firefly, cmpd/DMSO repeat 1” value stood at 28.0 and the “Firefly, cmpd/DMSO repeat 2” value worked out at 24.5.
Turning to `COc1cccc(NC(=O)c2ccc3oc(=O)c(S(=O)(=O)c4ccc(C)cc4)cc3c2)c1` [Compound C126], under setting [1], the “Firefly, cmpd/DMSO repeat 1” value is 45.1 and the “Firefly, cmpd/DMSO repeat 2” value was 44.8. Further, for the setting “Table 13”, the “Firefly/Renilla (NR2F6 stable, clone F4)” value was 1.0; the “Firefly, NR2F6 stable (clone F4)/pGL4” value amounted to 9.9; the “Firefly, cmpd/DMSO repeat 1” value was found to be 45.1; the “Firefly, cmpd/DMSO repeat 2” value is reported as 44.8.
As for `COc1cccc(NC(=O)c2ccc3oc(=O)c(S(=O)(=O)c4ccc(F)cc4)cc3c2)c1` [Compound C127], under setting [1], the “Firefly, cmpd/DMSO repeat 1” value worked out at 36.7 and the “Firefly, cmpd/DMSO repeat 2” value is 56.2. Moreover, where the note is “Table 13”, the “Firefly/Renilla (NR2F6 stable, clone F4)” value amounted to 1.1; the “Firefly, NR2F6 stable (clone F4)/pGL4” value is 5.7; the “Firefly, cmpd/DMSO repeat 1” value was 36.7; the “Firefly, cmpd/DMSO repeat 2” value is on record as 56.2.
Turning to `O=C(Nc1cccc(Cl)c1)c1ccc2oc(=O)c(S(=O)(=O)c3ccc(F)cc3)cc2c1` [Compound C128], under setting [1], the “Firefly, cmpd/DMSO repeat 1” value was determined as 1.7 and the “Firefly, cmpd/DMSO repeat 2” value was found to be 5.2.
As to `O=C(Nc1ccc(Cl)cc1)c1ccc2oc(=O)c(S(=O)(=O)c3ccc(F)cc3)cc2c1` [Compound C129], under setting [1], the “Firefly, cmpd/DMSO repeat 1” value turned out to be 0.9 and the “Firefly, cmpd/DMSO repeat 2” value was found to be 1.2.
On the same counts, the results for `COc1cc(NC(=O)c2ccc3oc(=O)c(S(=O)(=O)c4ccccc4)cc3c2)cc(OC)c1` [Compound C130] are 2.3 and 3.4.
Turning to `COc1cc(NC(=O)c2ccc3oc(=O)c(S(=O)(=O)c4ccc(C)cc4)cc3c2)cc(OC)c1` [Compound C131], under setting [1], the “Firefly, cmpd/DMSO repeat 1” value came to 9.5 and the “Firefly, cmpd/DMSO repeat 2” value is 15.3.
Turning to `COc1cc(NC(=O)c2ccc3oc(=O)c(S(=O)(=O)c4ccc(F)cc4)cc3c2)cc(OC)c1` [Compound C132], under setting [1], the “Firefly, cmpd/DMSO repeat 1” value is 1.4 and the “Firefly, cmpd/DMSO repeat 2” value stood at 1.4.
With `COc1cc(NC(=O)c2ccc3oc(=O)c(S(=O)(=O)c4ccc(Cl)cc4)cc3c2)cc(OC)c1` [Compound C133], under setting [1], the “Firefly, cmpd/DMSO repeat 1” value was determined as 2.1 and the “Firefly, cmpd/DMSO repeat 2” value amounted to 4.3.
For the compound `Cc1ccc(S(=O)(=O)c2cc3cc(C(=O)Nc4cccc(C)c4C)ccc3oc2=O)cc1` [Compound C134], under setting [1], the “Firefly, cmpd/DMSO repeat 1” value worked out at 38.1 and the “Firefly, cmpd/DMSO repeat 2” value worked out at 31.9. In addition, for the setting “Table 12”, the “Firefly/Renilla (NR2F6 stable, clone F4)” value was found to be 1.8; the “Firefly, NR2F6 stable (clone F4)/pGL4” value amounted to 7.7; the “Firefly, cmpd/DMSO repeat 1” value is given as 38.1; the “Firefly, cmpd/DMSO repeat 2” value is recorded as 31.9.
Consider `Cc1cccc(NC(=O)c2ccc3oc(=O)c(S(=O)(=O)c4ccc(F)cc4)cc3c2)c1C` [Compound C135], for which, under setting [1], the “Firefly, cmpd/DMSO repeat 1” value amounted to 5.6 and the “Firefly, cmpd/DMSO repeat 2” value is recorded as 4.9.
`Cc1cccc(NC(=O)c2ccc3oc(=O)c(S(=O)(=O)c4ccc(Cl)cc4)cc3c2)c1C` [Compound C136]: under setting [1], the “Firefly, cmpd/DMSO repeat 1” value is 22.1 and the “Firefly, cmpd/DMSO repeat 2” value is 25.8. Also, for the setting “Table 12”, the “Firefly/Renilla (NR2F6 stable, clone F4)” value is given as 1.7; the “Firefly, NR2F6 stable (clone F4)/pGL4” value is on record as 8.1; the “Firefly, cmpd/DMSO repeat 1” value is on record as 22.1; the “Firefly, cmpd/DMSO repeat 2” value was 25.8.
Regarding `O=c1oc2ccc([N+](=O)[O-])cc2cc1S(=O)(=O)c1ccc(F)cc1` [Compound C137], under setting [1], the “Firefly, cmpd/DMSO repeat 1” value turned out to be 22.6 and the “Firefly, cmpd/DMSO repeat 2” value was found to be 23.4. Further, for the setting “Table 13”, the “Firefly/Renilla (NR2F6 stable, clone F4)” value was determined as 1.4; the “Firefly, NR2F6 stable (clone F4)/pGL4” value was 8.4; the “Firefly, cmpd/DMSO repeat 1” value worked out at 22.6; the “Firefly, cmpd/DMSO repeat 2” value came out at 23.4.
Consider `O=c1oc2ccc([N+](=O)[O-])cc2cc1S(=O)(=O)c1ccc(Br)cc1` [Compound C138], for which, under setting [1], the “Firefly, cmpd/DMSO repeat 1” value is 10.0 and the “Firefly, cmpd/DMSO repeat 2” value came to 16.6.
For `CC(C)(C)c1ccc(S(=O)(=O)c2cc3cc([N+](=O)[O-])ccc3oc2=O)cc1` [Compound C139], under setting [1], the “Firefly, cmpd/DMSO repeat 1” value turned out to be 6.6 and the “Firefly, cmpd/DMSO repeat 2” value is reported as 6.4.
On the same counts, the results for `CC(C)c1ccc(S(=O)(=O)c2cc3cc(Cl)ccc3oc2=O)cc1` [Compound C140] are 12.8 and 12.0.
On to `Cc1ccc(S(=O)(=O)c2cc3cc(Cl)ccc3oc2=O)cc1C` [Compound C143], for which, under setting [1], the “Firefly, cmpd/DMSO repeat 1” value worked out at 15.2 and the “Firefly, cmpd/DMSO repeat 2” value stood at 14.5.
For `COc1ccc2oc(=O)c(S(=O)(=O)c3ccc(C)c(C)c3)cc2c1` [Compound C144] the same measures were 0.9 and 0.8.
